ChEMBL document CHEMBL1141393 (J Med Chem, 2007)
pIC50: −log10 of the molar value. ≈ marks a conversion by molar mass, not a printed value.

What was measured:
Candida albicans = experiment: Antifungal activity against Candida albicans; assay type: functional
Candida parapsilosis = experiment: Antifungal activity against Candida parapsilosis ATCC 22019; assay type: functional; conditions: Lodderomyces parapsilosis
Aspergillus fumigatus [1] = experiment: Antifungal activity against Aspergillus fumigatus; assay type: functional
Aspergillus fumigatus [2] = experiment: Antifungal activity against itraconazole resistant Aspergillus fumigatus; assay type: functional
Pichia kudriavzevii = experiment: Antifungal activity against Candida krusei ATCC 6258; assay type: functional
Cryptococcus neoformans = experiment: Antifungal activity against Cryptococcus neoformans; assay type: functional
Aspergillus flavus = experiment: Antifungal activity against Aspergillus flavus ATCC 204304; assay type: functional
Plasmodium falciparum [3] = experiment: Antiplasmodial activity against chloroquine-sensitive Plasmodium falciparum 3D7; assay type: functional, organism-based
Plasmodium falciparum [4] = experiment: Antiplasmodial activity against chloroquine-resistant Plasmodium falciparum W2; assay type: functional, organism-based
Plasmodium falciparum [5] = experiment: Antiplasmodial activity against chloroquine-resistant Plasmodium falciparum K1; assay type: functional, organism-based
Plasmodium falciparum [6] = experiment: Antiplasmodial activity against chloroquine-sensitive Plasmodium falciparum D10; assay type: functional, organism-based
KB = experiment: Cytotoxicity against human KB cell line; assay type: cell-based
Daudi = experiment: Cytotoxicity against human Daudi cell line; assay type: cell-based
[7] = Cytotoxicity against human lymphocytes; assay type: cell-based; conditions: Lymphocyte

| Compound | MIC (Candida albicans) | MIC (Candida parapsilosis) | MIC (Aspergillus fumigatus [1]) | MIC (Aspergillus fumigatus [2]) | MIC (Pichia kudriavzevii) | MIC (Cryptococcus neoformans) | MIC (Aspergillus flavus) | pIC50 (Plasmodium falciparum [3]) | pIC50 (Plasmodium falciparum [4]) | pIC50 (Plasmodium falciparum [5]) | pIC50 (Plasmodium falciparum [6]) | pIC50 (KB) | pIC50 (Daudi) | pIC50 [7] |
| --- | --- | --- | --- | --- | --- | --- | --- | --- | --- | --- | --- | --- | --- | --- |
| Clc1ccccc1C(c1ccccc1)(c1ccccc1)n1ccnc1 [CLOTRIMAZOLE] | 0.03 µg/mL (≈ 0.087 µM) | 2 µg/mL (≈ 5.8 µM) | 4 µg/mL (≈ 11.6 µM) | 4 µg/mL (≈ 11.6 µM) | 2 µg/mL (≈ 5.8 µM) | 2 µg/mL (≈ 5.8 µM) | 4 µg/mL (≈ 11.6 µM) | – | – | – | – | – | – | – |
| COc1ccc(C(c2ccccc2)(c2ccc(CN3CCCC3)cc2)n2ccnc2)cc1 (racemic) | – | – | – | – | – | – | – | 5.09 | 5.74 | 5.23 | 5.69 | – | – | – |
| Clc1ccc(C(c2ccccc2)(c2ccc(CN3CCCC3)cc2)N2CCCC2)cc1 (racemic) | – | – | – | – | – | – | – | 6.03 | 5.59 | 5.70 | 5.32 | – | – | – |
| Clc1ccccc1C(CNCN1CCCC1)n1ccnc1 (racemic) | – | – | – | – | – | – | – | 5.58 | 5.52 | 6.04 | 5.03 | – | – | – |
| Clc1ccc(C(c2ccccc2)(c2ccc(CN3CCCC3)cc2)n2cncn2)cc1 (racemic) | – | – | – | – | – | – | – | 5.05 | 5.42 | 5.67 | 5.16 | – | – | – |
| OC(c1ccccc1)(c1ccc(Cl)cc1)c1ccc(CN2CCCC2)cc1 (racemic) | – | – | – | – | – | – | – | < 5.00 | – | 5.66 | 5.08 | – | – | – |
| N#CC(c1ccccc1)(c1ccc(Cl)cc1)c1ccc(CN2CCCC2)cc1 (racemic) | – | – | – | – | – | – | – | 5.29 | – | 5.58 | – | – | – | – |
| Clc1cccc(C(c2ccc(CN3CCCC3)cc2)n2ccnc2)c1 (racemic) | > 32 µg/mL | > 32 µg/mL | > 32 µg/mL | – | > 32 µg/mL | > 32 µg/mL | > 32 µg/mL | 6.96 | 5.99 | 6.70 | 5.85 | – | – | – |
| Clc1ccc(C(c2ccccc2)(c2ccc(CN3CCCC3)cc2)n2ccnc2)cc1 (racemic) | 32 µg/mL (≈ 74.8 µM) | 32 µg/mL (≈ 74.8 µM) | > 32 µg/mL | – | 16 µg/mL (≈ 37.4 µM) | > 32 µg/mL | > 32 µg/mL | – | – | – | – | 4.15 | 4.24 | 4.15 |
| Clc1cccc(C(c2ccccc2)(c2ccc(CN3CCCC3)cc2)n2ccnc2)c1 (racemic) | – | – | – | – | – | – | – | 7.33 | 7.00 | 7.64 | 6.64 | – | – | – |
| CCN(CC)CCCNCC(c1ccccc1Cl)n1ccnc1 (racemic) | – | – | – | – | – | – | – | 5.72 | 5.35 | 5.51 | 5.19 | – | – | – |
| Clc1ccc(C(c2ccc(CN3CCCC3)cc2)n2ccnc2)cc1 (racemic) | > 32 µg/mL | > 32 µg/mL | > 32 µg/mL | – | > 32 µg/mL | > 32 µg/mL | > 32 µg/mL | 6.51 | 5.95 | 6.77 | 5.78 | – | – | – |
| Clc1ccccc1C(c1ccc(CN2CCCC2)cc1)n1ccnc1 (racemic) | > 32 µg/mL | > 32 µg/mL | > 32 µg/mL | – | > 32 µg/mL | > 32 µg/mL | > 32 µg/mL | 7.96 | 5.77 | 6.96 | 5.66 | – | – | – |
| Clc1ccc(C(Cn2ccnc2)(c2ccccc2)c2ccc(CN3CCCC3)cc2)cc1 (racemic) | – | – | – | – | – | – | – | 6.12 | – | 6.28 | – | – | – | – |
| CCN(CC)Cc1ccc(C(c2ccccc2Cl)n2cncn2)cc1 (racemic) | – | – | – | – | – | – | – | < 5.00 | < 5.00 | 6.10 | < 5.00 | – | – | – |
